# Assay results published in publication PMC8968063, “Key features of inhibitor binding to the human mitochondrial pyruvate carrier hetero-dimer” (Molecular Metabolism, 2022).
# Values joined by “and” are separate entries in the source; they are usually repeats but may differ in a detail not shown here. Identical values can stand only once. Like-named read-outs stand apart in the source and are kept apart here.
# Tests used:
# human MPC1L/MPC2 complex [1] = molecular target: T1, human MPC1L/MPC2 complex (Homo sapiens, UniProt O95563+P0DKB6); test: nano-DSF thermostability shift assay, purified MPC1L/MPC2; type: binding; conditions: inhibitor 100 μM; for Tm, nano-DSF: unliganded 51.9 ± 0.1, mean ± s.d., 2 biological repeats
# T1 construct: eight-histidine tag (C, cleaved yes); TEV protease cleavage site (part stays on MPC2 after digestion) (C, cleaved yes); made in house; host or cells: Saccharomyces cerevisiae SHY15 (mpc triple deletion strain), purified from mitochondria
# T1 sequence (P0DKB6 2-136): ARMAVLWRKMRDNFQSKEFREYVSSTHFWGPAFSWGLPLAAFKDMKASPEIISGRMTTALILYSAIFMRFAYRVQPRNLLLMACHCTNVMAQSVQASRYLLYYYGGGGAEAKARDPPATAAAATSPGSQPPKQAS
# T1 sequence (O95563 2-127): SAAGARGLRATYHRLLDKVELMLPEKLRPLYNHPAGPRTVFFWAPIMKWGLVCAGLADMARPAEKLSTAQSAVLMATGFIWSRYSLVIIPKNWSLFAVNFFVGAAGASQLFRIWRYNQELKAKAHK
# Method: Ligand binding was also assessed using dye-free nano differential scanning fluorimetry (nano-DSF) to monitor fluorescence changes due to altered environments of tryptophan and tyrosine residues during unfolding. Protein samples in buffer containing 20 mM Tris–HCl pH 7.4, 150 mM NaCl, 0.1% (w/v) LMNG, 0.1 mg/mL TOCL, in the presence or absence of the indicated concentrations of small molecule inhibitors, were loaded into capillary tubes, and a temperature ramp of 5 °C/min was applied. The intrinsic fluorescence was measured using the NanoTemper Prometheus NT.48 (NanoTemper, München, Germany).
# human MPC1L/MPC2 complex [2] = molecular target: T1, human MPC1L/MPC2 complex; test: CPM thermostability shift assay, purified MPC1L/MPC2; type: binding; conditions: for ΔTm at 100 µM: read-out: ∆Tm, CPM assay (thermal shift compared to no-ligand control); for Tm, CPM assay: unliganded 51.3 ± 0.2, mean ± s.d., 3 biological repeats
# Method: The assessment of ligand binding was performed via shifts in protein thermostability upon binding using thermal denaturation on a rotary quantitative PCR (qPCR) instrument (Qiagen Rotor-Gene Q 2plex HRM, Venlo, Netherlands), as previously described. In this method, cysteine residues, buried within the protein structure, become solvent-exposed during denaturation in a temperature ramp and then react with 7-diethylamino-3-(4-maleimidophenyl)-4-methylcoumarin (CPM) to form fluorescent-adducts. Briefly, a CPM working solution was prepared by diluting the CPM stock (5 mg/mL in dimethyl sulfoxide) 50-fold into assay buffer (20 mM Tris–HCl, pH 7.4, 150 mM NaCl, 0.1% (w/v) LMNG, 0.1 mg/mL TOCL) and incubated for 10 min at room temperature. In each analysis, performed in duplicates or triplicates, 3 μg of purified MPC was diluted into 45 μL of assay buffer containing the desired concentration of the inhibitor then incubated for 10 min on ice. Next, 5 μL of the CPM working solution were added. Samples were incubated on ice for an additional 10 min then subjected to a temperature ramp of 5.6 °C/min. The fluorescence increase was monitored with the HRM channel of the instrument (excitation at 440–480 nm, emission at 505–515 nm). Unfolding profiles were analysed with the Rotor-Gene Q software 2.3, and the peaks of their derivatives were used to determine the apparent melting temperature.
# [3] = molecular target: T2, recombinant human MPC1L/MPC2 (Homo sapiens, UniProt O95563+P0DKB6); test: Electrospray mass spectrometry of MPC1L/MPC2 after reaction with inhibitors or sulfhydryl modifiers; conditions: for Covalent modification of MPC protomers (molecular mass change): folded MPC1L/MPC2 incubated with compound, ESI-MS; for Modifications, MPC1L (2–136) / Modifications, MPC1L (5–136) / Modifications, MPC2 (2–137): number of covalent adducts from mass increase
# T2 construct: MPC1L (2–136); MPC2 (2–137); eight-histidine tag (C, cleaved yes); TEV protease cleavage site (part stays on MPC2 after digestion) (C, cleaved yes); made in house; host or cells: Saccharomyces cerevisiae SHY15 (mpc triple deletion strain), purified from mitochondria
# T2 sequence (P0DKB6 2-136 limits assumed): T1 sequence (P0DKB6 2-136)
# T2 sequence (O95563 2-127 limits assumed): T1 sequence (O95563 2-127)
# Method: Different MPC inhibitors (Table1) or sulfhydryl reagents were first incubated with MPC1L/MPC2 in a folded state, then the protein molecular masses were measured by electrospray mass spectrometry. The MPC subunits (10 μg) were resolved by reverse-phase HPLC on a PLRP-S column (1.0 mm i.d. X 75 mm; VARIAN) using a gradient of 2-propanol in a solvent system compatible with the recovery of membrane proteins (Carroll et al., 2009). The eluate (50 μL/min) was introduced into a QTRAP4000 (SCIEX) mass spectrometer operating in positive ion single MS mode. The instrument was scanned from 700 m/z to 2300 m/z after calibration with ions from a mixture of 1.0 μM of myoglobin and 1.5 μM trypsinogen. Molecular masses were obtained by reconstruction of the spectra of multiply charged ions using PeakView (SCIEX).
# [4] = molecular target: T3, human MPC1L/MPC2 hetero-dimer (Homo sapiens, UniProt O95563+P0DKB6); test: Inhibition of [14C]-pyruvate homo-exchange in MPC1L/MPC2 proteoliposomes; type: biochemical; conditions: MPC1L/MPC2 proteoliposomes, 50 μM [14C]-pyruvate homo-exchange, mean ± s.d.; read-out: IC50 of pyruvate transport inhibition
# T3 construct: eight-histidine tag (C, cleaved yes); TEV protease cleavage site (part stays on MPC2 after digestion) (C, cleaved yes); made in house; host or cells: Saccharomyces cerevisiae SHY15 (mpc triple deletion strain), purified from mitochondria
# T3 sequence (P0DKB6 2-136): T1 sequence (P0DKB6 2-136)
# T3 sequence (O95563 2-127): T1 sequence (O95563 2-127)
# Method: Egg L-α-phosphatidylcholine 99% (w/v) (Avanti Polar Lipids, AL, USA) and TOCL were mixed in a 20:1 (w/w) ratio, dried under a stream of nitrogen and washed once with methanol before being dried again. Lipids were hydrated in 20 mM Tris–HCl, pH 8.0, 50 mM NaCl to a concentration of 12 mg/mL. Unlabeled pyruvate was added as a freshly made concentrated stock at a final concentration of 5 mM for internalisation. Lipids were solubilised with 1.2% (v/v) pentaethylene glycol monodecyl ether (Sigma) and freshly purified protein was added at a lipid-to-protein ratio of 250:1 (w/w). Samples were incubated on ice for 5 min, then liposomes were formed by the step-wise removal of pentaethylene glycol monodecyl ether by five additions at 20 min intervals of 60 mg Bio-Beads SM-2 (Bio-Rad, Watford, UK) with gentle mixing at 4 °C. A final addition of 480 mg Bio-Beads was incubated with the samples overnight. Proteoliposomes were first separated from the Bio-Beads by passage through empty spin columns (Bio-Rad, Watford, UK) and subsequently pelleted at 120,000×g for 60 min. The proteoliposomes were resuspended with a thin needle in 150 μL of their supernatant after the rest of the supernatant was removed.
# The time course of pyruvate homo-exchange was measured at room temperature. The transport was initiated by diluting proteoliposomes 200-fold into external buffer, 20 mM MES, pH 6.4, 50 mM NaCl, containing 50 μM [^14C]-pyruvate (500,000 dpm, Perkin Elmer, MA, USA). The reaction (0–30 s) was terminated by rapid dilution into 8 volumes of ice-cold internal buffer (20 mM Tris–HCl, pH 8.0, 50 mM NaCl), followed by rapid filtration through cellulose nitrate 0.45 μm filters (Millipore, Gillingham, UK) and washing with an additional 8 volumes of buffer. The filters were dissolved in Ultima Gold scintillation liquid (Perkin Elmer, MA, USA) and the radioactivity was counted with a Perkin Elmer Tri-Carb 2800 RT liquid scintillation counter. […] The data analysis was performed with non-linear regression fittings using GraphPad Prism 7.0d ([Inhibitor] vs response, variable slope). The specific uptake rates were calculated based on the amount of protein used in reconstitutions, as estimated from bicinchoninic acid assay. The biological repeats represent independent proteoliposome preparations using protein from independent purifications.
# [5] = MPC1L/MPC2 after reaction with compound
SMILES,ΔTm at 100 µM (human MPC1L/MPC2 complex [2]; inhibitor 100 μM) [°C],"Tm, CPM assay (human MPC1L/MPC2 complex [2]; inhibitor 100 μM) [°C]",other results
"CCc1ccc(CCOc2ccc(CC3SC(=O)NC3=O)cc2)nc1 (stereo not shown) [Pioglitazone, pioglitazone]",5.1 ± 0.9,56.4 ± 0.7,"∆Tm, nano-DSF (human MPC1L/MPC2 complex [1]): 1.1 ± 0.3 °C; Tm, nano-DSF (human MPC1L/MPC2 complex [1]): 53.0 ± 0.2 °C"
"CN(CCOc1ccc(CC2SC(=O)NC2=O)cc1)c1ccccn1 (stereo not shown) [Rosiglitazone, rosiglitazone]",5.3 ± 0.5,56.6 ± 0.3,–
CCN1C(=O)C=CC1=O [NEM],–,–,"Covalent modification of MPC protomers (molecular mass change) [3]: modified covalently; Modifications, MPC1L (2–136) [3]: 2 x NEM and 1 x NEM; Modifications, MPC1L (5–136) [3]: unmodified and 1 x NEM and 2 x NEM and 3 x NEM; Modifications, MPC2 (2–137) [3]: 2 x NEM and 1 x NEM and 3 x NEM"
N#C/C(=C/c1ccc(-c2cccc(C(F)(F)F)c2)o1)C(=O)O [Compound 6],8.5 ± 1.6,59.8 ± 1.4,–
N#C/C(=C/c1ccc(-c2ccccc2[N+](=O)[O-])o1)C(=O)O [Compound 7],16.5 ± 1.4,67.8 ± 1.2,"IC50 [4]: 5.4 ± 1.1 nM; Mass difference (observed vs calculated), MPC1L (2–136) [3, 5]: 0.5 Da; Mass difference (observed vs calculated), MPC1L (5–136) [3, 5]: 0.9 Da; Mass difference (observed vs calculated), MPC2 (2–137) [3, 5]: 1.6 Da; Covalent modification of MPC protomers (molecular mass change) [3]: no molecular mass differences"
O=C1NC(=O)C(=Cc2ccc(-c3ccccc3[N+](=O)[O-])o2)C(=O)N1 [Compound 11],–,57.7 ± 2.1,ΔTm at 100 µM (human MPC1L/MPC2 complex [2]): 6.4 ± 2.3 °C
N#C/C(=C/c1ccc(-c2cccc([N+](=O)[O-])c2)o1)C(=O)O [Compound 9],11.7 ± 2,63.0 ± 1.8,–
N#C/C(=C/c1ccc(-c2ccc(Cl)cc2)o1)C(=O)O [Compound 5],9 ± 1.6,60.3 ± 1.4,–
N#C/C(=C/c1ccc(-c2ccc(F)cc2)o1)C(=O)O [Compound 4],9.1 ± 1.5,60.4 ± 1.3,–
O=C(O)C(=Cc1ccc(-c2ccccc2[N+](=O)[O-])o1)C(=O)O [Compound 10],-0.1 ± 1.1,51.2 ± 0.9,"∆Tm, CPM assay (thermal shift compared to no-ligand control) (human MPC1L/MPC2 complex [2]; inhibitor 100 μM): No thermal shift"
N#C/C(=C/c1ccc(-c2ccc(Br)cc2)o1)C(=O)O [Compound 3],8.4 ± 1.3,59.7 ± 1.1,–
"CCc1ccc(C(=O)COc2ccc(CC3SC(=O)NC3=O)cc2)nc1 (stereo not shown) [Mitoglitazone, mitoglitazone]",5.4 ± 0.8,56.7 ± 0.6,"∆Tm, nano-DSF (human MPC1L/MPC2 complex [1]): 1.9 ± 0.5 °C; Tm, nano-DSF (human MPC1L/MPC2 complex [1]): 53.8 ± 0.4 °C"
CS(=O)(=O)SCCN [MTSEA],–,–,"Mass difference (observed vs calculated), MPC1L (2–136) [3, 5]: +149.3 Da; Mass difference (observed vs calculated), MPC1L (5–136) [3, 5]: +149.2 Da; Covalent modification of MPC protomers (molecular mass change) [3]: modified covalently; Modifications, MPC1L (2–136) [3]: 2 x MTSEA; Modifications, MPC1L (5–136) [3]: 2 x MTSEA; Modifications, MPC2 (2–137) [3]: 1 x MTSEA"
C=CCN1C(=O)NC(=O)/C(=C/c2ccc(-c3ccccc3[N+](=O)[O-])o2)C1=O [Compound 13],7.4 ± 1.9,58.7 ± 1.7,–
"CCN(CC)C(=O)/C(C#N)=C/c1cc(O)c(O)c([N+](=O)[O-])c1 [Entacapone, (2E)-2-cyano-3-(3,4-dihydroxy-5-nitrophenyl)-N,N-diethylprop-2-enamide]",–,–,"∆Tm, nano-DSF (human MPC1L/MPC2 complex [1]): 6.3 ± 1.1 °C; Tm, nano-DSF (human MPC1L/MPC2 complex [1]): 58.2 ± 1.0 °C; IC50 [4]: 630 ± 53 nM"
CN1C(=O)NC(=O)/C(=C/c2ccc(-c3ccccc3[N+](=O)[O-])o2)C1=O [Compound 12],9.1 ± 0.9,60.4 ± 0.7,–
COc1ccc(/C=C(/C#N)C(=O)O)cc1 [Compound 1],9.1 ± 1.2,60.4 ± 1.0,–
"O=C1CN(/N=C/c2ccc([N+](=O)[O-])o2)C(=O)N1 [Nitrofurantoin, (E)-1-[(5-nitro-2-furyl)methylideneamino]imidazolidine-2,4-dione]",–,–,IC50 [4]: 3300 ± 2600 nM
N#C/C(=C/c1ccc(-c2ccccc2Cl)o1)C(=O)O [Compound 8],11 ± 1.9,62.3 ± 1.7,–
COc1cc(C2Oc3cc([C@H]4Oc5cc(O)cc(O)c5C(=O)[C@@H]4O)ccc3OC2CO)ccc1O (stereo partly shown) [Silibinin],0.1 ± 0.6,51.4 ± 0.4,"∆Tm, nano-DSF (human MPC1L/MPC2 complex [1]): 0.2 ± 0.3 °C; ∆Tm, nano-DSF (human MPC1L/MPC2 complex [1]; listed as silibinin): No thermal shifts; Tm, nano-DSF (human MPC1L/MPC2 complex [1]): 52.1 ± 0.2 °C; Thermal shift in the CPM assay (human MPC1L/MPC2 complex [2]; compound 1 mM): positive thermal shift; ∆Tm, CPM assay (thermal shift compared to no-ligand control) (human MPC1L/MPC2 complex [2]; inhibitor 100 μM): No thermal shifts"
